From article PMC8224453, “A New PqsR Inverse Agonist Potentiates Tobramycin Efficacy to Eradicate Pseudomonas aeruginosa Biofilms” (Advanced Science, 2021)

Key:
[1] = Metabolic stability, dog liver S9; assay type: in vitro ADME; conditions: pooled liver S9 fraction, Table S4, read-out: t1/2 dog liver S9
Method: (§1) For the evaluation of combined phase I and phase II metabolic stability, the compound (1 μM) was incubated with 1 mg/mL pooled liver S9 fraction from the respective species (Xenotech), […]
(§2) 2 mM NADPH, 1 mM UDPGA, 10 mM MgCl2, 5 mM GSH and 0.1 mM PAPS at 37 °C for […]
(§3) 0, 5, 15, 30 or 60 min. The metabolic stability of Testosterone (1 μM) and verapamil (1 μM) […]
(§4) were determined in parallel to confirm the enzymatic activity of the S9 fraction. The […]
(§5) incubation was stopped by precipitation of S9 enzymes with 2 volumes of cold acetonitrile […]
(§6) containing internal standard (750 nM Diphenhydramine). Samples were stored on ice for 10 […]
(§7) min and precipitated protein was removed by centrifugation (10 min, 4 °C, 17,000 g).
(§8) Concentration of the remaining test compound at the different time points was analyzed by […]
(§9) LC-MS/MS (TSQ Quantum Access MAX, Thermo Fisher, Dreieich, Germany) and used to […]
(§10) determine half-life (t1/2). Stability of compound 4 in further S9 fractions are summarized in […]
(§11) Table S4. Metabolic stability studies in various S9 fractions. […]

[2] = Metabolic stability, guinea pig liver S9; assay type: in vitro ADME; conditions: pooled liver S9 fraction, Table S4, read-out: t1/2 guinea pig liver S9
Method: (§12) subtraction and plotted using GraphPad Prism 8.4.2 (GraphPad Software, San Diego, CA, […]
(§13) USA). Solubility (S) was determined based on the First X value of AUC function using a […]
as §1, §2, §3, §4, §5, §6, §7, §8, §9, §10, §11
(§14) guinea pig liver S9 92.5 ± 5.4
(§15) 5.6. Permeability studies
(§16) Permeability of compound 4 and 17 was assessed in vitro with Calu-3 HTB-55 cell line (ATCC). […]

[3] = Metabolic stability, rabbit liver S9; assay type: in vitro ADME; conditions: pooled liver S9 fraction, Table S4, read-out: t1/2 rabbit liver S9
Method: as §12, §13, §1, §2, §3, §4, §5, §6, §7, §8, §9, §10, §11, §14, §15, §16

[4] = Metabolic stability, monkey liver S9; assay type: in vitro ADME; conditions: pooled liver S9 fraction, Table S4, read-out: t1/2 monkey liver S9
Method: as §1, §2, §3, §4, §5, §6, §7, §8, §9, §10, §11

[5] = Mouse MTD, acute single dose toxicity i.v.; assay type: in vivo; conditions: mice
Method: Pyruvate. Passages between 35 and 55 were used, medium was changed every 2-3 days. For experiments, cells were harvested using Trypsin/EDTA and seeded on Transwell® inserts 3460 at a density of 1∙105 cells. Cells were grown at air-liquid interface beginning day 3 and used for Transport studies on day 11-13. TEER values exceeded 300 Ω∙cm2 before beginning Transport studies. For experiments, Krebs-Ringer solution with 1% BSA was used and cells were accommodated to the buffer for at least 1h with no decrease in TEER. 200 µL samples were taken in regular intervals from the apical side (time intervals 0, 20, 40, 60, 90, 120, 180, 240 minutes) and replenished with fresh buffer. TEER was monitored during the experiment and epithelial barriers were considered compromised if the TEER fell below 300 during 4 h of experiment duration. […] 50 µL of sample was mixed with 150 µL of ice-cold acetonitrile containing internal standard diphenhydramine (1 µM) and the concentration of compound was analyzed with LC-MS/MS. […]
The in vivo tolerability study was performed on ten-week old female C57BL/6N mice. […] Mice behavior and body weight were monitored over 24 h period. At 24 h post-injection, the mice were euthanized, lungs were collected, and the blood leukocytes as well as the absolute leukocytes (including segented, lymphocytes, monocytes and eosinophiles) were counted to access the tolerability. […]

FC(F)(F)c1cc(NCc2cn(-c3ccc(Oc4ccccc4)cc3)nn2)ccn1 [Compound 4]
half-life at 1 μM [1]: 72.2 ± 7.6 min
half-life at 1 μM [2]: 92.5 ± 5.4 min
half-life at 1 μM [3]: 20 ± 10 min
half-life at 1 μM [4]: 22.8 ± 6.7 min
test dosing up to which no test item related clinical symptoms were observed ([5]; i.v. single dose, after 24 h): ≥ 60 mg/kg
MTD at 24 h ([5]; mouse, in vivo, iv, i.v., read-out: dose up to which well tolerated (maximum tolerated dose study)): ≥ 60 mg/kg
